For 18 compounds, TGI results are on record in PubChem BioAssay (NCI).

Experiment in all cases: DTP human tumour cell line panel, 48 h
For test [1], the system named is MDA-MB-435.
Test [2] relates to HCT-116 colon.
In test [3] the test system is NCI/ADR-RES ovarian.
Test [4] concerns K-562 leukemia.
Test [5] concerns EKVX NSCLC.
Test [6] relates to OVCAR-8 ovarian.
Test [7] relates to MDA-N.
Test [8] relates to HL-60(TB) leukemia.
In test [9] the test system is ACHN renal.
In test [10] the test system is HS 578T breast.
Test [11] relates to SF-295 CNS.
Test [12] deals with NCI-H226 lung.
The test system of test [13] is SNB-19 CNS.
The test system of test [14] is SNB-75 CNS.
The subject of test [15] is HOP-92 NSCLC.

Molecules are shown by their SMILES.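 Following 48 hours of exposure in 96-well plates, responses at five concentrations were used to interpolate endpoints linearly. Definition used: TGI = concentration required for complete inhibition of growth.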

The TGI is the concentration giving total growth inhibition. A high value points to less potent growth arrest.

`COc1ccc(/C(Br)=C2\OC(=O)c3ccccc32)cc1`: the TGI in [1], in [2], in test [3], in test [4], in test [5] and in test [6] was greater than 10 µM each time. Besides, the TGI in test [7], in [8], in [9], in test [10], in test [11] and in [12] was greater than 10 µM in each case. The concentration for total growth inhibition (TGI) in [13], in test [14] and in [15] was greater than 10 µM in each case.
As for `c1cc2nnc1SCCCSc1ccc(nn1)SCCCS2`, the concentration for total growth inhibition (TGI) in test [1] was greater than 100 µM; in test [2], greater than 54.1 µM; in [3], greater than 52.9 µM; in test [4], greater than 100 µM; in [5], greater than 100 µM; in test [6], greater than 100 µM. The total growth inhibition concentration (TGI) in test [7] is greater than 100 µM; in test [8], greater than 92.4 µM; in test [9] it was greater than 100 µM; in test [10] it was 99.2 µM; in test [11], greater than 100 µM; in [12], greater than 94.1 µM. Further, the concentration for total growth inhibition (TGI) in test [13] was greater than 93.2 µM; in test [14], greater than 56.6 µM; in test [15] it was greater than 100 µM.
On to `NC(=O)C(=CNC(=S)Nc1ccccc1)C(N)=O`, for which the TGI in test [1], in test [2], in [3], in [4], in [5] and in test [6] was greater than 100 µM each time. The total growth inhibition concentration (TGI) in test [7], in test [8], in [9], in test [10], in test [11] and in [12] was greater than 100 µM in each case. For the same compound, the total growth inhibition concentration (TGI) in [13], in test [14] and in [15] was greater than 100 µM in each case.
In the case of `CCOC(=O)C(C(=O)OCC)=C1NC2(c3ccccc3Nc3ccccc32)C(C#N)S1` (stereo not given), the TGI in test [1] stood at 20.6 µM; in [2], 27.6 µM; in [3], 28.8 µM; in test [4] it was 28.4 µM; in test [5], 47.2 µM; in test [6], 30 µM. The TGI is 36.3 µM in test [7]; 55.5 µM in [8]; 52.8 µM in test [9]; 46.3 µM in test [10]; 40 µM in test [11]; 26.2 µM in test [12]. Further, the TGI in test [13] amounted to 35.1 µM; in test [14], 53.2 µM; in test [15], 15.6 µM.
As for `COC(=O)c1cc2c(c3c1CC(Cc1ccccc1)C3=O)CCC2` (stereo not given), the total growth inhibition concentration (TGI) in test [1], in test [2], in test [3], in test [4], in [5] and in test [6] was greater than 100 µM throughout. Besides, the TGI in [7], in test [8], in [9], in test [10], in test [11] and in [12] was greater than 100 µM each time. Besides, the values for the TGI in [13], in test [14] and in test [15] were greater than 100 µM, greater than 100 µM and 78 µM, respectively.
On to `COc1cc2c(c(O)c1OC)C(=O)[C@@H]1CCC(=O)N1C2`, for which the TGI in test [1], in test [2], in test [3], in test [4], in test [5] and in [6] was greater than 100 µM throughout. The TGI in [7], in test [8], in [9], in [10], in test [11] and in [12] was greater than 100 µM in each case. Further, the total growth inhibition concentration (TGI) in test [13], in test [14] and in test [15] was greater than 100 µM in each case.
On to `Clc1cc(Cl)cc(N=C/C=C/Nc2cc(Cl)cc(Cl)c2)c1`, for which the TGI was 35.9 µM in test [1]; 30.1 µM in test [2]; 34.6 µM in [3]; 66.2 µM in test [4]; 26.9 µM in test [5]; 42.5 µM in [6]. The total growth inhibition concentration (TGI) in [7] was 38.6 µM; in test [8], 49.7 µM; in [9], 44.7 µM; in test [10], greater than 100 µM; in test [11], 51.4 µM; in test [12], 32.8 µM. In addition, the concentration for total growth inhibition (TGI) in test [13] is 53.8 µM; in [14], 39.3 µM; in test [15], greater than 100 µM.
For the compound `N[C@H](C(=O)O)[C@@H]1CC(Br)=NO1`, the concentration for total growth inhibition (TGI) in test [1], in test [2], in test [3], in test [4], in test [5] and in test [6] was greater than 100 µM each time. Besides, the TGI in test [7], in [8], in [9], in test [10], in test [11] and in test [12] was greater than 100 µM each time. The total growth inhibition concentration (TGI) in [13], in test [14] and in test [15] was greater than 100 µM throughout.
In the case of `C=C1CC(c2ccc(OCCCN3C(=O)c4ccccc4C3=O)cc2)OC1=O` (stereo not given), the TGI in test [1] is 9.2 µM; in [2], 4.89 µM; in [3], greater than 95.1 µM; in test [4], 3.16 µM; in test [5], 18.4 µM; in [6], 9.35 µM. Besides, the TGI in test [7] worked out at 10.7 µM; in test [8], 5.22 µM; in test [9], 10.4 µM; in test [10] it was 20.4 µM; in [11], 25.5 µM; in test [12], 11.4 µM. Also, the total growth inhibition concentration (TGI) was 25.5 µM in [13], 23.7 µM in [14] and 2.99 µM in [15].
For the compound `Nc1ncnc2oc(C3OC(COC(=O)c4ccccc4)C(OC(=O)c4ccccc4)C3OC(=O)c3ccccc3)nc12` (stereo not given), the total growth inhibition concentration (TGI) in test [1], in test [2], in [3], in test [4], in test [5] and in test [6] was greater than 100 µM throughout. Also, the TGI in test [7], in [8], in [9], in test [10], in [11] and in [12] was greater than 100 µM throughout. The total growth inhibition concentration (TGI) in test [13], in test [14] and in test [15] was greater than 100 µM in each case.
In the case of `O=C(c1ccccc1)N(C(=O)c1ccccc1)c1nc(SCc2ccccc2)ns1`, the total growth inhibition concentration (TGI) in test [1] is 91.8 µM; in [2], 57.3 µM; in [3] it was 78.7 µM; in test [4], greater than 100 µM; in test [5], 68.7 µM; in [6], greater than 100 µM. Moreover, the TGI is 90.5 µM in [7]; 52.6 µM in test [8]; greater than 100 µM in test [9]; 86.3 µM in test [10]; 79.1 µM in [11]; 78.7 µM in test [12]. The concentration for total growth inhibition (TGI) was greater than 100 µM in test [13], 58.1 µM in test [14] and 73.6 µM in test [15].
For `Cc1cc(N(CCC#N)CCC#N)ccc1/C(N=Nc1cccc(Cl)c1)=N/NC(=O)c1cc(Cl)ccc1O`, the TGI in test [1] was greater than 100 µM; in test [2], 44.4 µM; in [3], 54.6 µM; in test [4] it was greater than 100 µM; in [5], 39.6 µM; in test [6], 49.2 µM. The TGI in [7] was greater than 100 µM; in [8], 9.06 µM; in test [9], 42 µM; in [10], greater than 100 µM; in [11], greater than 100 µM; in [12] it was 84.2 µM. Further, the TGI was greater than 100 µM in test [13], 42.1 µM in test [14] and 43.1 µM in [15].
As for `O=[N+]([O-])/C(C(Cl)=C(Cl)Cl)=C(/Cl)SCc1ccccc1`, the TGI turned out to be 5.12 µM in test [1]; 3.88 µM in [2]; 3.62 µM in test [3]; 3.36 µM in test [4]; 40.1 µM in test [5]; 3.04 µM in [6]. Besides, the total growth inhibition concentration (TGI) in test [7] came out at 4.23 µM; in test [8] it was 0.437 µM; in [9], 9.06 µM; in [10] it was 9.67 µM; in [11] it was 69.1 µM; in test [12], 56.7 µM. Moreover, the TGI in test [13] is 43.2 µM; in test [14], 24.9 µM; in [15], 9.01 µM.
For the compound `COC(=O)c1ccc2c(c1)S/C(=C/c1ccc3ccc4cccc5ccc1c3c45)S2`, the TGI in test [1] was 74.3 µM; in test [2], greater than 100 µM; in test [3], 76.2 µM; in test [4], greater than 100 µM; in test [5], greater than 100 µM; in [6], greater than 100 µM. Besides, the concentration for total growth inhibition (TGI) in test [7] is greater than 100 µM; in [8], 46.9 µM; in test [9] it was greater than 100 µM; in [10], greater than 100 µM; in test [11], greater than 100 µM; in test [12] it was greater than 100 µM. Also, the results for the TGI in [13], in test [14] and in [15] were greater than 100 µM, 46 µM and greater than 100 µM, respectively.
As to `CC1(c2nc3ccccc3[nH]2)CCC(C(=O)O)C(C)(C)O1` (stereo not given), the TGI in [1], in [2], in [3], in [4], in test [5] and in test [6] was greater than 100 µM in each case. Moreover, the TGI in [7], in test [8], in test [9], in test [10], in test [11] and in [12] was greater than 100 µM in each case. In addition, the TGI in test [13], in [14] and in test [15] was greater than 100 µM in each case.
In the case of `C[C@]12C[C@@H](OC(=O)[C@]1(C)O)[C@@H]([C@]1(O)CC[C@H]3[C@@H]4C[C@H]5O[C@]56C[C@H]5O[C@H]5C(=O)[C@]6(C)[C@H]4CC[C@@]31C)C2`, the TGI in test [1], in test [2], in test [3], in test [4], in test [5] and in test [6] was greater than 50 µM in each case. Moreover, the TGI in [7], in [8], in test [9], in [10], in test [11] and in test [12] was greater than 50 µM throughout. The TGI in test [13], in test [14] and in test [15] was greater than 50 µM throughout.
`CC1(C)OC(=S)N(c2ccccc2)C12C=Cc1ccccc1O2` (stereo not given): the total growth inhibition concentration (TGI) in test [1], in test [2], in test [3], in [4], in [5] and in test [6] was greater than 100 µM in each case. The TGI in test [7] is greater than 100 µM; in test [8] it was 52.4 µM; in test [9], greater than 100 µM; in [10], greater than 100 µM; in test [11] it was greater than 100 µM; in test [12], greater than 100 µM. In addition, the TGI in test [13], in test [14] and in test [15] was greater than 100 µM each time.
Turning to `CC(=O)OCC(=O)O[C@@H]1[C@H]2[C@@H](OC(=O)c3ccccc3)[C@@H](C)C[C@]2(O)[C@H](OC(C)=O)[C@@]2(C)C(OC(C)=O)[C@]1(OC(C)=O)C[C@H]1C(=O)C(C)(C)C[C@@H]12` (stereo not given in full), the TGI in test [1], in [2], in test [3], in test [4], in test [5] and in test [6] was greater than 50 µM in each case. Also, the TGI in [7], in [8], in test [9], in [10], in test [11] and in test [12] was greater than 50 µM each time. For the same compound, the total growth inhibition concentration (TGI) in test [13], in test [14] and in test [15] was greater than 50 µM each time.
